Tests used:
IL-1 = details: human mononuclear cells stimulated with lipopolysaccharide; cited from earlier work
[1] = tested on: tumor necrosis factor α (TNF-α); details: human mononuclear cells stimulated with lipopolysaccharide; cited from earlier work
[2] = tested on: patients suffering from oro-pharyngeal catarrh accompanied by pain (sore throat); test: Example 1: placebo-controlled double-blind trial, two days of treatment with ambroxol lozenges; type: in vivo, human; details: up to six lozenges containing 20 mg ambroxol hydrochloride per day, vs placebo
Excerpt: The activity of ambroxol according to the invention is intended to be illustrated by the following three examples of clinical trials which investigate: 1) the […] of ambroxol lozenges by measurement of the redness symptom and 2) the efficacy and tolerability of ambroxol lozenges relative to placebo in relieving the symptoms of sore throat of at least moderately severe intensity in patients suffering from oro-pharyngeal catarrh accompanied by pain.
The first study was a multi-centre, prospective, placebo-controlled, randomized, double-blind trial involving two days of treatment with up to six lozenges containing 20 mg ambroxol hydrochloride per day.
109 patients were treated with ambroxol and 109 patients with placebo.

IL-10 / IL-12 balance = details: in vitro; cited from earlier work
interferon-γ (INF-γ) = details: bronchoalveolar lavage cells and peripheral blood mononuclear cells stimulated with phythemagglutine; cited from earlier work
interleukin-2 (IL-2) = details: bronchoalveolar lavage cells and peripheral blood mononuclear cells stimulated with phythemagglutine; cited from earlier work
TNF = details: in vitro; cited from earlier work

Row | SMILES | production of IL-1 (IL-1) | production of tumor necrosis factor α (TNF-α) [1] | pain (primary endpoint) [2] | inflammatory responses, local balance of IL-10 and IL-12 (IL-10 / IL-12 balance) | secretion of interferon-γ (INF-γ) (interferon-γ (INF-γ)) | secretion of interleukin-2 (IL-2) (interleukin-2 (IL-2)) | release of inflammatory TNF (TNF)
1 | Nc1c(Br)cc(Br)cc1CN[C@H]1CC[C@H](O)CC1 [ambroxol, trans-4-(2-amino-3,5-dibromobenzylamino)-cyclohexanole] | inhibit the production | inhibit the production | reduced statistically significantly | enhance inflammatory responses | decrease the secretion | decrease the secretion | 
2 | CC(C(=O)O)c1cccc(C(=O)c2ccccc2)c1 (stereo not shown) [ketoprofen] |  |  |  |  |  |  | induce the release

Source: patent US20050075403A1, “Ambroxol for the treatment of inflammation in the pharynx” (priority 2003, published 2005)
